Experimental data: patent publication US9573957B2 (Boehringer Ingelheim International GmbH, priority 2013, dated 2017)

Assays:
human LTA4 hydrolase = human LTA4 hydrolase (Homo sapiens (Human), UniProt P09960); experiment: LTA4H Enzyme assay (peptidase, Arg-AMC cleavage); format: biochemical; conditions: LTA4H Enzyme 1 nM, Arg-AMC substrate 50 μM, room temperature 1 h, fluorescence
Method in brief: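 Aminomethylcoumarin release measured fluorimetrically (380/460 nm) after 1 h at room temperature. Reaction: 1 nM final enzyme, 50 μM final Arg-AMC and compound in Tris-HCl pH 7.5 with 100 mM KCl and 0.5% BSA.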

[1] = system: synthesis of LTB4 in human whole blood; experiment: LTB4 production inhibition assay in human whole blood (HWB); format: cell-based; conditions: heparinized human whole blood, 15 min at 37° C., Calcimycin 20 μM 30 min, plasma LTB4 by HTRF
Method in brief: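 LTB4 in plasma read by HTRF immunoassay after centrifugation. Before that, compound sat with heparinized human whole blood 15 min at 37° C, followed by 30 min at 37° C with 20 μM (final) calcimycin.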

human LTA4 hydrolase, sequence (P09960 whole entry): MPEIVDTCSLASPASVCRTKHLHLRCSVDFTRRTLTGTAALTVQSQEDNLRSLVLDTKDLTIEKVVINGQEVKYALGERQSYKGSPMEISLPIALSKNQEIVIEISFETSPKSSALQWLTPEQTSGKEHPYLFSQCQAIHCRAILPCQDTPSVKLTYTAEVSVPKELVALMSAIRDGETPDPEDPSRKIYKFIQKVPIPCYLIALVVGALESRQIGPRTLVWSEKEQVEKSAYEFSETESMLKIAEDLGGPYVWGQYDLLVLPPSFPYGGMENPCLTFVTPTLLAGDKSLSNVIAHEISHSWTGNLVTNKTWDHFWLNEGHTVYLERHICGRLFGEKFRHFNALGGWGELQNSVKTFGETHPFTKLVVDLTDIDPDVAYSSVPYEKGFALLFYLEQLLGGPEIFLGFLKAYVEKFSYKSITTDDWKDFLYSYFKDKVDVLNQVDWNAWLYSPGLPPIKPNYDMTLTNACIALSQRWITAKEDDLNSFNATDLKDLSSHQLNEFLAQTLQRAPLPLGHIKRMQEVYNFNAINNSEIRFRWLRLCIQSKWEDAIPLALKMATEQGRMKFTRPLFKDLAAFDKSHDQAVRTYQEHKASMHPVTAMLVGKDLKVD

Compound	IC50 (human LTA4 hydrolase) [nM]	IC50 [1] [nM]
CO[C@H](C)C(=O)N1CCN(Cc2cn3cc(Oc4ccc(-c5ccn[nH]5)cc4)ccc3n2)CC1 [Example 80, (R)-2-Methoxy-1-(4-{6-[4-(2H-pyrazol-3-yl)-phenoxy]-imidazo[1,2-a]pyridin-2-ylmethyl}-piperazin-1-yl)-propan-1-one]	0.85	200
CC(C)(O)C(=O)N1CCN(CCC2COc3cc(Oc4ccc(-c5ccn[nH]5)cn4)ccc32)CC1 (stereo not drawn) [Example 81, 2-Hydroxy-2-methyl-1-[4-(2-{6-[5-(2H-pyrazol-3-yl)-pyridin-2-yloxy]-2,3-dihydro-benzofuran-3-yl}-ethyl)-piperazin-1-yl]-propan-1-one]	2.2	580
C[C@H](O)C(=O)N1CCN(CCC2COc3cc(Oc4ccc(-c5ccn[nH]5)cn4)ccc32)CC1 (stereo partly drawn) [Example 84, (S)-2-Hydroxy-1-[4-(2-{6-[5-(2H-pyrazol-3-yl)-pyridin-2-yloxy]-2,3-dihydro-benzofuran-3-yl}-ethyl)-piperazin-1-yl]-propan-1-one]	1.3	450
C[C@H](O)C(=O)N1CCN(Cc2cn3cc(Oc4ccc(-c5ccn[nH]5)cc4)ccc3n2)CC1 [Example 87, (S)-2-Hydroxy-1-(4-{6-[4-(2H-pyrazol-3-yl)-phenoxy]-imidazo[1,2-a]pyridin-2-ylmethyl}-piperazin-1-yl)-propan-1-one]	1	260
CO[C@@H](C)C(=O)N1CCN(CCC2COc3cc(Oc4ccc(-c5ccn[nH]5)cn4)ccc32)CC1 (stereo partly drawn) [Example 88, (S)-2-Methoxy-1-[4-(2-{6-[5-(2H-pyrazol-3-yl)-pyridin-2-yloxy]-2,3-dihydro-benzofuran-3-yl}-ethyl)-piperazin-1-yl]-propan-1-one]	1.2	410
COCC(=O)N1CCN(Cc2cn3cc(Oc4ccc(-c5ccn[nH]5)cc4)ccc3n2)CC1 [Example 89, 2-Methoxy-1-(4-{6-[4-(2H-pyrazol-3-yl)-phenoxy]-imidazo[1,2-a]pyridin-2-ylmethyl}-piperazin-1-yl)-ethanone]	0.66	470
C[C@@H](O)C(=O)N1CCN(CCC2COc3cc(Oc4ccc(-c5ccn[nH]5)cn4)ccc32)CC1 (stereo partly drawn) [Example 91, (R)-2-Hydroxy-1-[4-(2-{6-[5-(2H-pyrazol-3-yl)-pyridin-2-yloxy]-2,3-dihydro-benzofuran-3-yl}-ethyl)-piperazin-1-yl]-propan-1-one]	2.2	930
C[C@@H](O)C(=O)N1CCN(Cc2cn3cc(Oc4ccc(-c5ccn[nH]5)cc4)ccc3n2)CC1 [Example 94, (R)-2-Hydroxy-1-(4-{6-[4-(2H-pyrazol-3-yl)-phenoxy]-imidazo[1,2-a]pyridin-2-ylmethyl}-piperazin-1-yl)-propan-1-one]	0.87	350
CC(=O)N1CCN(Cc2cn3cc(Oc4ccc(-c5ccn[nH]5)cc4)ccc3n2)CC1 [Example 95, 1-(4-{6-[4-(2H-Pyrazol-3-yl)-phenoxy]-imidazo[1,2-a]pyridin-2-ylmethyl}-piperazin-1-yl)-ethanone]	0.59	280
O=C(N1CCN(Cc2cn3cc(Oc4ccc(-c5ccn[nH]5)cc4)ccc3n2)CC1)C1(O)CC1 [Example 96, (1-Hydroxy-cyclopropyl)-(4-{6-[4-(2H-pyrazol-3-yl)-phenoxy]-imidazo[1,2-a]pyridin-2-ylmethyl}-piperazin-1-yl)-methanone]	1.2	990
CN(C(=O)CO)[C@@H]1CCN(Cc2ccc3cc(Oc4ccc(-c5ccn[nH]5)cn4)ccc3n2)C1 [Example 98]	0.72	120
CN(C(=O)CO)[C@H]1CCN(Cc2ccc3cc(Oc4ccc(-c5ccn[nH]5)cn4)ccc3n2)C1 [Example 99]	0.86	140
CN(Cc1ccc2cc(Oc3ccc(-c4ccn[nH]4)cn3)ccc2n1)[C@@H]1CCN(C(=O)CO)C1 [Example 100, 2-Hydroxy-1-[(R)-3-(methyl-{6-[5-(2H-pyrazol-3-yl)-pyridin-2-yloxy]-quinolin-2-ylmethyl}-amino)-pyrrolidin-1-yl]-ethanone]	0.92	170
CN(Cc1ccc2cc(Oc3ccc(-c4ccn[nH]4)cn3)ccc2n1)[C@H]1CCN(C(=O)CO)C1 [Example 101, 2-Hydroxy-1-[(S)-3-(methyl-{6-[5-(2H-pyrazol-3-yl)-pyridin-2-yloxy]-quinolin-2-ylmethyl}-amino)-pyrrolidin-1-yl]-ethanone]	2	230

Next, values leading:

IC50 (human LTA4 hydrolase) [nM]	IC50 [1] [nM]	Compound
1.3	410	O=C(CO)N1CCN(CCc2coc3cc(Oc4ccc(-c5ccn[nH]5)cn4)ccc23)CC1 [Example 82, 2-Hydroxy-1-[4-(2-{6-[5-(2H-pyrazol-3-yl)-pyridin-2-yloxy]-benzofuran-3-yl}-ethyl)-piperazin-1-yl]-ethanone]
0.86	240	C[C@H](O)C(=O)N1CCN(CCc2coc3cc(Oc4ccc(-c5ccn[nH]5)cn4)ccc23)CC1 [Example 83, (S)-2-Hydroxy-1-[4-(2-{6-[5-(2H-pyrazol-3-yl)-pyridin-2-yloxy]-benzofuran-3-yl}-ethyl)-piperazin-1-yl]-propan-1-one]
1.3	310	CC(C)(O)C(=O)N1CCN(CCc2coc3cc(Oc4ccc(-c5ccn[nH]5)cn4)ccc23)CC1 [Example 85, 2-Hydroxy-2-methyl-1-[4-(2-{6-[5-(2H-pyrazol-3-yl)-pyridin-2-yloxy]-benzofuran-3-yl}-ethyl)-piperazin-1-yl]-propan-1-one]
1.5	640	O=C(N1CCN(CCC2COc3cc(Oc4ccc(-c5ccn[nH]5)cn4)ccc32)CC1)C1(O)CC1 (stereo not drawn) [Example 90, (1-Hydroxy-cyclopropyl)-[4-(2-{6-[5-(2H-pyrazol-3-yl)-pyridin-2-yloxy]-2,3-dihydro-benzofuran-3-yl}-ethyl)-piperazin-1-yl]-methanone]
1.1	470	C[C@@H](O)C(=O)N1CCN(CCc2coc3cc(Oc4ccc(-c5ccn[nH]5)cn4)ccc23)CC1 [Example 92, (R)-2-Hydroxy-1-[4-(2-{6-[5-(2H-pyrazol-3-yl)-pyridin-2-yloxy]-benzofuran-3-yl}-ethyl)-piperazin-1-yl]-propan-1-one]
0.91	530	O=C(N1CCN(CCc2coc3cc(Oc4ccc(-c5ccn[nH]5)cn4)ccc23)CC1)C1(O)CC1 [Example 93, (1-Hydroxy-cyclopropyl)-[4-(2-{6-[5-(2H-pyrazol-3-yl)-pyridin-2-yloxy]-benzofuran-3-yl}-ethyl)-piperazin-1-yl]-methanone]
0.58	210	CC(=O)N1CCCN(Cc2coc3cc(Oc4ccc(-c5ccn[nH]5)cn4)ccc23)CC1 [Example 97, 1-(4-{6-[5-(2H-Pyrazol-3-yl)-pyridin-2-yloxy]-benzofuran-3-ylmethyl}-[1,4]diazepan-1-yl)-ethanone]
0.66	150	O=C(CO)N1CCC2(CCN(Cc3ccc4cc(Oc5ccc(-c6ccn[nH]6)cn5)ccc4n3)C2)C1 (stereo not drawn) [Example 102, 2-Hydroxy-1-(7-{6-[5-(2H-pyrazol-3-yl)-pyridin-2-yloxy]-quinolin-2-ylmethyl}-2,7-diaza-spiro[4.4]non-2-yl)-ethanone]
0.49	170	CNC(=O)C1CCN(Cc2coc3cc(Oc4ccc(-c5ccn[nH]5)cn4)ccc23)CC1 [Example 103, 1-{6-[5-(2H-Pyrazol-3-yl)-pyridin-2-yloxy]-benzofuran-3-ylmethyl}-piperidine-4-carboxylic acid methylamide]
0.56	150	CC(=O)NC1CCN(Cc2coc3cc(Oc4ccc(-c5ccn[nH]5)cn4)ccc23)CC1 [Example 104, N-(1-{6-[5-(2H-Pyrazol-3-yl)-pyridin-2-yloxy]-benzofuran-3-ylmethyl}-piperidin-4-yl)-acetamide]
0.81	210	CS(=O)(=O)NC1CCN(Cc2coc3cc(Oc4ccc(-c5ccn[nH]5)cn4)ccc23)CC1 [Example 105, N-(1-{6-[5-(2H-Pyrazol-3-yl)-pyridin-2-yloxy]-benzofuran-3-ylmethyl}-piperidin-4-yl)-methanesulfonamide]
0.38	120	CC(=O)NCC1CCN(Cc2coc3cc(Oc4ccc(-c5ccn[nH]5)cn4)ccc23)CC1 [Example 106, N-(1-{6-[5-(2H-Pyrazol-3-yl)-pyridin-2-yloxy]-benzofuran-3-ylmethyl}-piperidin-4-ylmethyl)-acetamide]
0.7	210	CC(=O)N1CCC(CNCc2coc3cc(Oc4ccc(-c5ccn[nH]5)cn4)ccc23)CC1 [Example 107, 1-{4-[({6-[5-(2H-Pyrazol-3-yl)-pyridin-2-yloxy]-benzofuran-3-ylmethyl}-amino)-methyl]-piperidin-1-yl}-ethanone]
0.71	180	CC(=O)N1CCC(NCc2coc3cc(Oc4ccc(-c5ccn[nH]5)cn4)ccc23)CC1 [Example 108, 1-[4-({6-[5-(2H-Pyrazol-3-yl)-pyridin-2-yloxy]-benzofuran-3-ylmethyl}-amino)-piperidin-1-yl]-ethanone]
0.36	140	O=C1[C@@H](O)CCN1C1CCN(Cc2coc3cc(Oc4ccc(-c5ccn[nH]5)cn4)ccc23)CC1 [Example 109, (S)-3-Hydroxy-1-(1-{6-[5-(2H-pyrazol-3-yl)-pyridin-2-yloxy]-benzofuran-3-ylmethyl}-piperidin-4-yl)-pyrrolidin-2-one]
0.22	130	CN1CCC2(CCN(Cc3coc4cc(Oc5ccc(-c6ccn[nH]6)cn5)ccc34)CC2)C1=O [Example 110, 2-Methyl-8-{6-[5-(2H-pyrazol-3-yl)-pyridin-2-yloxy]-benzofuran-3-ylmethyl}-2,8-diaza-spiro[4.5]decan-1-one]
